# From patent US8809270B2, “Method for reducing cardiovascular morbidity and mortality in prediaetic patients and patients with type 2 diabetes” (priority 2003, dated 2014)
# Legend:
# [1] = test system: individuals with IGT, IFG, or mild untreated type 2 diabetes; assay: Study HOE901/1021: blood glucose response to 15-minute stationary bicycle exercise; parameters: species or system human; conditions: in vivo
# Protocol: The study was conducted at three centers in the US. After screening tests, including fasting plasma glucose (FPG) and post prandial plasma glucose (PPG; two hours following a 75 g oral glucose load) for classification as IGT, IFG, diabetic, or normal glucose tolerance (NGT), and after satisfying other inclusion criteria including the ability to perform moderate exercise on a stationary bicycle, subjects were admitted to an inpatient study center. They were confined there for the next 15 days, during which time they were randomly assigned to receive either HOE901 once per day subcutaneously in the evening, or matching placebo (saline) injections in a 3:1 randomization (HOE901:placebo). Baseline assessments included a 5-point (before each meal, bedtime, and 3 AM) and 8-point (5-point plus readings 2 hours after each meal) blood glucose profile on separate days, and 15 minutes of exercise on a stationary bicycle at a level of exertion of “somewhat hard” on the Borg scale with blood glucose values monitored during and for 3 hours following the exercise. Each subject received a 25 kCal/kg diet while confined in the study center. Capillary whole blood glucose values were recorded on HemoCue devices. Episodes of hypoglycemia (blood glucose 50 mg/dL [2.8 mM] or symptoms with blood glucose 65 mg/dL [3.6 mM]) were recorded. […]
# [2] = test system: type 2 diabetic population inadequately treated with oral drugs; assay: Treat-to-Target study (HOE901/4002): lipid data; type: in vivo, human; parameters: Triglycerides % reduction from baseline / Triglycerides % reduction from baseline, LANTUS-AMARYL / Non-HDL Cholesterol Total % reduction from baseline / Non-HDL Cholesterol Total % reduction from baseline, LANTUS-AMARYL: concentration or dose not given beside the values; Triglycerides Baseline / Triglycerides Endpoint: unit not given beside the values; conditions: for Non-HDL Cholesterol Total % reduction from baseline, LANTUS-AMARYL / Non-HDL Cholesterol Total change at endpoint, LANTUS-AMARYL / Triglycerides % reduction from baseline, LANTUS-AMARYL / Triglycerides change at endpoint, LANTUS-AMARYL: LANTUS (4002 Study) minus AMARYL (two AMARYL studies)
# Excerpt: As a consequence of the excellent glycemic control attained, which set the standard for glycemic control in future trials, the 4002 study results are especially useful as an assessment of Lantus's LANTUS (insulin glargine) effects on lipids.
# [3] = Post-marketing surveillance safety database; parameters: species or system human
# Excerpt: (§1) Treatment with Lantus® LANTUS (insulin glargine) insulin offers the possibility of a smooth, daylong, blood insulin profile without a definite peak that can be finely titrated to lower subjects' FPG in a durable manner, while minimizing the risk of hypoglycemia at other times of day.
# [4] = test system: people with impaired glucose tolerance (IGT) or impaired fasting glucose (IFG), mild type 2 diabetes; assay: Study HOE901/1021: fasting and 8-point blood glucose profiles, bedtime dose titration; type: in vivo, human
# Excerpt: Study HOE901/1021 was a randomized, single-blind (pharmacist-unblinded), inpatient, dose-titration study designed to examine the safety and efficacy of HOE901 given once a day subcutaneously at bedtime in a novel population: people with impaired glucose tolerance (IGT) or impaired fasting glucose (IFG). It was conceived as a pilot study for a large international trial of HOE901 in a dysglycemic population of IGT, IFG, and early type 2 diabetes in order to investigate dosing in the prediabetic (IFG/IGT) population for the first time. Of special interest was the incidence of hypoglycemia during the study.
# The study was conducted at three centers in the US. After screening tests, including fasting plasma glucose (FPG) and post prandial plasma glucose (PPG; two hours following a 75 g oral glucose load) for classification as IGT, IFG, diabetic, or normal glucose tolerance (NGT), and after satisfying other inclusion criteria including the ability to perform moderate exercise on a stationary bicycle, subjects were admitted to an inpatient study center. They were confined there for the next 15 days, during which time they were randomly assigned to receive either HOE901 once per day subcutaneously in the evening, or matching placebo (saline) injections in a 3:1 randomization (HOE901:placebo). Baseline assessments included a 5-point (before each meal, bedtime, and 3 AM) and 8-point (5-point plus readings 2 hours after each meal) blood glucose profile on separate days, and 15 minutes of exercise on a stationary bicycle at a level of exertion of “somewhat hard” on the Borg scale with blood glucose values monitored during and for 3 hours following the exercise. Each subject received a 25 kCal/kg diet while confined in the study center. Capillary whole blood glucose values were recorded on HemoCue devices. Episodes of hypoglycemia (blood glucose 50 mg/dL [2.8 mM] or symptoms with blood glucose 65 mg/dL [3.6 mM]) were recorded.
# Once randomized, subjects' bedtime doses of study drug were titrated to achieve a fasting blood glucose (FBG) of 80-95 mg/dL [4.4 mM-5.3 mM]. Dose increases were based on FBG values and were performed every 2 days. Subjects remained at the site until the end of the confinement period, regardless of when target FBG levels were achieved. Five-point blood glucose profiles were performed every other day, with 8-point blood glucose profiles performed on alternate days. At endpoint all baseline procedures, including an 8-point blood glucose profile, and an exercise assessment, were repeated.
# [5] = Multiple-dose pharmacokinetic study (Study 1020); type: in vivo; conditions: 2 days of treatment
# Excerpt: as §1
substance,measurement,setting,value
insulin glargine [LANTUS],hypoglycemic events during exercise,[1],no hypoglycemic events
same,HDL Baseline,[2]; TG baseline range 200-500,42
same,HDL Endpoint,[2]; TG baseline range 200-500,41
same,Non-HDL Cholesterol Total % reduction from baseline,[2]; TG baseline range 200-500,7%
same,Non-HDL Cholesterol Total Baseline,[2]; TG baseline range 200-500,167
same,Non-HDL Cholesterol Total Endpoint,[2]; TG baseline range 200-500,155
same,Triglycerides % reduction from baseline,[2]; TG baseline range 200-500,25%
same,Triglycerides Baseline,[2]; TG baseline range 200-500,288
same,Triglycerides Endpoint,[2]; TG baseline range 200-500,232
same,"Non-HDL Cholesterol Total % reduction from baseline, LANTUS-AMARYL",[2]; TG baseline range 200-500,4%
same,"Non-HDL Cholesterol Total change at endpoint, LANTUS-AMARYL",[2]; TG baseline range 200-500,5.8
same,"Triglycerides % reduction from baseline, LANTUS-AMARYL",[2]; TG baseline range 200-500,13%
same,"Triglycerides change at endpoint, LANTUS-AMARYL",[2]; TG baseline range 200-500,21.7
same,HDL Baseline,[2]; TG baseline range 300-500,40
same,HDL Endpoint,[2]; TG baseline range 300-500,40
same,Non-HDL Cholesterol Total % reduction from baseline,[2]; TG baseline range 300-500,15%
same,Non-HDL Cholesterol Total Baseline,[2]; TG baseline range 300-500,180
same,Non-HDL Cholesterol Total Endpoint,[2]; TG baseline range 300-500,152
same,Triglycerides % reduction from baseline,[2]; TG baseline range 300-500,34%
same,Triglycerides Baseline,[2]; TG baseline range 300-500,362
same,Triglycerides Endpoint,[2]; TG baseline range 300-500,240
same,"Non-HDL Cholesterol Total % reduction from baseline, LANTUS-AMARYL",[2]; TG baseline range 300-500,12%
same,"Non-HDL Cholesterol Total change at endpoint, LANTUS-AMARYL",[2]; TG baseline range 300-500,21.9
same,"Triglycerides % reduction from baseline, LANTUS-AMARYL",[2]; TG baseline range 300-500,16%
same,"Triglycerides change at endpoint, LANTUS-AMARYL",[2]; TG baseline range 300-500,52.5
same,HDL Baseline,[2]; TG baseline range 300-1000,37
same,HDL Endpoint,[2]; TG baseline range 300-1000,38
same,Non-HDL Cholesterol Total % reduction from baseline,[2]; TG baseline range 300-1000,10%
same,Non-HDL Cholesterol Total Baseline,[2]; TG baseline range 300-1000,181
same,Non-HDL Cholesterol Total Endpoint,[2]; TG baseline range 300-1000,163
same,Triglycerides % reduction from baseline,[2]; TG baseline range 300-1000,36%
same,Triglycerides Baseline,[2]; TG baseline range 300-1000,470
same,Triglycerides Endpoint,[2]; TG baseline range 300-1000,301
same,"Non-HDL Cholesterol Total % reduction from baseline, LANTUS-AMARYL",[2]; TG baseline range 300-1000,5%
same,"Non-HDL Cholesterol Total change at endpoint, LANTUS-AMARYL",[2]; TG baseline range 300-1000,8.6
same,"Triglycerides % reduction from baseline, LANTUS-AMARYL",[2]; TG baseline range 300-1000,13%
same,"Triglycerides change at endpoint, LANTUS-AMARYL",[2]; TG baseline range 300-1000,63.6
same,HDL Baseline,[2]; TG baseline range 500-1000,33
same,HDL Endpoint,[2]; TG baseline range 500-1000,36
same,Non-HDL Cholesterol Total % reduction from baseline,[2]; TG baseline range 500-1000,8%
same,Non-HDL Cholesterol Total Baseline,[2]; TG baseline range 500-1000,186
same,Non-HDL Cholesterol Total Endpoint,[2]; TG baseline range 500-1000,171
same,Triglycerides % reduction from baseline,[2]; TG baseline range 500-1000,38%
same,Triglycerides Baseline,[2]; TG baseline range 500-1000,661
same,Triglycerides Endpoint,[2]; TG baseline range 500-1000,409
same,"Non-HDL Cholesterol Total % reduction from baseline, LANTUS-AMARYL",[2]; TG baseline range 500-1000,−2%
same,"Non-HDL Cholesterol Total change at endpoint, LANTUS-AMARYL",[2]; TG baseline range 500-1000,−9.0
same,"Triglycerides % reduction from baseline, LANTUS-AMARYL",[2]; TG baseline range 500-1000,5%
same,"Triglycerides change at endpoint, LANTUS-AMARYL",[2]; TG baseline range 500-1000,34.4
same,LDL Baseline,[2]; TG baseline range All,113
same,LDL Endpoint,[2]; TG baseline range All,110
same,reduction in fasting TG levels,[2]; all patients,24%
same,reduction in fasting TG levels,[2]; elevations of 500 mg/dL or more,38%
same,reduction in fasting TG levels,[2]; fasting TG in the 300-499 mg/dL range,34%
same,incidence of hypoglycemia or unexpected adverse reactions compared to other marketed insulin preparations,[3],no increased incidence of hypoglycemia or unexpected adverse reactions
same,Mean FBG,[4]; Day 12 (endpoint),85.6 mg/dL
same,Mean FBG,[4]; Day −1 (baseline),98.1 mg/dL
same,reduction in mean daylong blood glucose,[4]; Day −1 to Day 12,8.8 mg/dL
same,subjects who had reached an FPG of 100 mg/dL,[4]; by Day 12,All but 2
same,subjects who had reached the FBG target of 95 mg/dL or less,[4]; by Day 12,all but 4
same,doses to reach steady-state levels,[5],2 doses
